The values below come from publication PMC3076311 (Nature structural & molecular biology, 2011).

This assay concerns the target TcdB CPD E753R R745E (Clostridioides difficile, UniProt P18177, E753R/R745E). Type of assay: biochemical, Clostridium difficile.

On to inositol hexakisphosphate [InsP6], for which the “factor by which activity is decreased relative to wildtype TcdB CPD” value worked out at 23.
